Read-outs that look alike come from different tables or passages of the source.
Biological target: T1, H. sapiens SLC2A9 variant 2 (GLUT9B) (Homo sapiens, UniProt Q9NRM0)
T1 sequence (Q9NRM0 1-511 isoform Q9NRM0-2): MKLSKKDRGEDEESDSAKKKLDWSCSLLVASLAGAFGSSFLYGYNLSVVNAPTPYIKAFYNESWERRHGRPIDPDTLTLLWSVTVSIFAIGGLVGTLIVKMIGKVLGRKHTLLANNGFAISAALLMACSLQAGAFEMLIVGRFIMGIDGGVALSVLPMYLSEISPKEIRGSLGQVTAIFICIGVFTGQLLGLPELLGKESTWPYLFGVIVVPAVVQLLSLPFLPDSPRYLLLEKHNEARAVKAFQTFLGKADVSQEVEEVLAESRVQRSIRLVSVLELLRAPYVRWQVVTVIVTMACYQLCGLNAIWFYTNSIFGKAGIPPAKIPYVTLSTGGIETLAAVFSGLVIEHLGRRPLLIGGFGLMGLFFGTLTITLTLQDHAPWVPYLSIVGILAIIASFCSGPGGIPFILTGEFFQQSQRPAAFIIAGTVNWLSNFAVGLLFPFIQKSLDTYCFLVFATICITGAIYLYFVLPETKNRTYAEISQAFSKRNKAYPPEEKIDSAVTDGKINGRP
Test: GLUT9 functional assay: uric acid uptake in HEK293T cells, allantoin formation by MS/MS as proxy of GLUT9B inhibition
Assay type: cell-based
Conditions: HEK293T cells stably expressing GLUT9B and transiently A. oryzae uricase, uric acid 0.3 mM, 37° C.
How it was run: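 Inhibition of GLUT9B-mediated urate uptake read as reduced allantoin formation, measured by MS/MS against allantoin standards in HEK293T matrix with log-logistic fitting. Stable GLUT9B HEK293T cells carrying transfected A. oryzae uricase were incubated 15 or 60 min at 37° C with uric acid at Km (0.3 mM), pH 7.4 gluconate buffer.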

[1] = 15 minute assay, read-out: 15 min IC50
[2] = 60 minute assay, read-out: 60 min IC50

| IC50 [1] [nM] | IC50 [2] [nM] | SMILES |
| --- | --- | --- |
| 500 to 2000 | – | O=C(O)C1CCN(c2nc(CC(C(F)(F)F)C(F)(F)F)cnc2-c2ccc3c(c2)OCO3)CC1 [Compound 127, 1-(3-(benzo[d][1,3]dioxol-5-yl)-6-(3,3,3-trifluoro-2-(trifluoromethyl)propyl)pyrazin-2-yl)piperidine-4-carboxylic acid] |
| < 500 | – | O=C(O)C1CCN(c2nc(CCCCC(F)(F)F)cnc2-c2ccc3occc3c2)CC1 [Compound 130, 1-(3-(benzofuran-5-yl)-6-(5,5,5-Trifluoropentyl)Pyrazin-2-yl)Piperidine-4-carboxylic acid] |
| < 500 | – | CC(F)(F)CCc1cnc(-c2ccc3occc3c2)c(N2CCC(C(=O)O)CC2)n1 [Compound 134, 1-(3-(benzofuran-5-yl)-6-(3,3-difluorobutyl)pyrazin-2-yl)piperidine-4-carboxylic acid] |
| 500 to 2000 | – | COCCOc1ccc(-c2ncc(CCC(C)(F)F)nc2N2CCC(C(=O)O)CC2)cc1 [Compound 137, 1-(6-(3,3-difluorobutyl)-3-(4-(2-methoxyethoxy)phenyl)pyrazin-2-yl)piperidine-4-carboxylic acid] |
| < 500 | – | COCCCCc1cnc(-c2ccc3c(c2)CCO3)c(N2CCC(C(=O)O)CC2)n1 [Compound 139, 1-(3-(2,3-dihydrobenzofuran-5-yl)-6-(4-methoxybutyl)pyrazin-2-yl)piperidine-4-carboxylic acid] |
| < 500 | – | COCCCCc1cnc(-c2ccc(OCCOC)cc2)c(N2CCC(C(=O)O)CC2)n1 [Compound 141, 1-(6-(4-methoxybutyl)-3-(4-(2-methoxyethoxy)phenyl)pyrazin-2-yl)piperidine-4-carboxylic acid] |
| < 500 | – | O=C(O)C1CCN(c2nc(CCCC(F)F)cnc2-c2ccc3c(c2)OCO3)CC1 [Compound 144, 1-(3-(benzo[d][1,3]dioxol-5-yl)-6-(4,4-difluorobutyl)pyrazin-2-yl)piperidine-4-carboxylic acid] |
| < 500 | – | O=C(O)C1CCN(c2nc(CCCOC(F)(F)F)cnc2-c2ccc3occc3c2)CC1 [Compound 151, 1-(3-(benzofuran-5-yl)-6-(3-(trifluoromethoxy)propyl)pyrazin-2-yl)piperidine-4-carboxylic acid] |
| < 500 | – | O=C(O)C1CCN(c2nc(CCC(F)(F)F)cnc2-c2ccc(OCC3CC3)cc2)CC1 [Compound 152, 1-(3-(4-(cyclopropylmethoxy)phenyl)-6-(3,3,3-trifluoropropyl)pyrazin-2-yl)piperidine-4-carboxylic acid] |
| 500 to 2000 | – | O=C(O)C1CCN(c2nc(CCC(F)(F)C(F)(F)F)cnc2-c2ccc(OCC3CC3)cc2)CC1 [Compound 154, 1-(3-(4-(cyclopropylmethoxy)phenyl)-6-(3,3,4,4,4-pentafluorobutyl)pyrazin-2-yl)piperidine-4-carboxylic acid] |
| > 2000 | – | COCC(COC)Cc1cnc(-c2ccc(OCC3CC3)cc2)c(N2CCC(C(=O)O)CC2)n1 [Compound 156, 1-(3-(4-(cyclopropylmethoxy)phenyl)-6-(3-methoxy-2-(methoxymethyl)propyl)pyrazin-2-yl)piperidine-4-carboxylic acid] |
| 500 to 2000 | – | O=C(O)C1CCN(c2nc(CCCC(F)(F)F)cnc2-c2ccc(C(F)(F)F)cc2)CC1 [Compound 158, 1-(6-(4,4,4-trifluorobutyl)-3-(4-(trifluoromethyl)phenyl)pyrazin-2-yl)piperidine-4-carboxylic acid] |

The next lines start with the molecule.

| SMILES | IC50 [1] [nM] | IC50 [2] [nM] |
| --- | --- | --- |
| O=C(O)C1CCN(c2nc(CCC(F)(F)C(F)(F)F)cnc2-c2ccc3c(c2)OCO3)CC1 [Compound 126, 1-(3-(benzo[d][1,3]dioxol-5-yl)-6-(3,3,4,4,4-pentafluorobutyl)pyrazin-2-yl)piperidine-4-carboxylic acid] | < 500 | – |
| O=C(O)C1CCN(c2nc(CCCC(F)(F)F)cnc2-c2cc(F)c3occc3c2)CC1 [Compound 129, 1-(3-(7-fluorobenzofuran-5-yl)-6-(4,4,4-trifluorobutyl)pyrazin-2-yl)piperidine-4-carboxylic acid] | < 500 | – |
| O=C(O)C1CCN(c2nc(CCCCC(F)(F)F)cnc2-c2ccc3c(c2)CCO3)CC1 [Compound 131, 1-(3-(2,3-dihydrobenzofuran-5-yl)-6-(5,5,5-trifluoropentyl)pyrazin-2-yl)piperidine-4-carboxylic acid] | < 500 | – |
| O=C(O)C1CCN(c2nc(CCCCC(F)(F)F)cnc2-c2ccc3c(c2)OCO3)CC1 [Compound 132, 1-(3-(benzo[d][1,3]dioxol-5-yl)-6-(5,5,5-trifluoropentyl)pyrazin-2-yl)piperidine-4-carboxylic acid] | < 500 | – |
| COCCOc1ccc(-c2ncc(CCCCC(F)(F)F)nc2N2CCC(C(=O)O)CC2)cc1 [Compound 133, 1-(3-(4-(2-methoxyethoxy)phenyl)-6-(5,5,5-trifluoropentyl)pyrazin-2-yl)piperidine-4-carboxylic acid] | < 500 | – |
| CC(F)(F)CCc1cnc(-c2ccc3c(c2)CCO3)c(N2CCC(C(=O)O)CC2)n1 [Compound 135, 1-(6-(3,3-difluorobutyl)-3-(2,3-dihydrobenzofuran-5-yl)pyrazin-2-yl)piperidine-4-carboxylic acid] | 500 to 2000 | – |
| CC(F)(F)CCc1cnc(-c2ccc3c(c2)OCO3)c(N2CCC(C(=O)O)CC2)n1 [Compound 136] | < 500 | – |
| COCCCCc1cnc(-c2ccc3occc3c2)c(N2CCC(C(=O)O)CC2)n1 [Compound 138, 1-(3-(benzofuran-5-yl)-6-(4-methoxybutyl)pyrazin-2-yl)piperidine-4-carboxylic acid] | < 500 | < 500 |
| COCCCCc1cnc(-c2ccc3c(c2)OCO3)c(N2CCC(C(=O)O)CC2)n1 [Compound 140, 1-(3-(benzo[d][1,3]dioxol-5-yl)-6-(4-methoxybutyl)pyrazin-2-yl)piperidine-4-carboxylic acid] | < 500 | – |
| O=C(O)C1CCN(c2nc(CCCC(F)F)cnc2-c2ccc3occc3c2)CC1 [Compound 142, 1-(3-(benzofuran-5-yl)-6-(4,4-difluorobutyl)pyrazin-2-yl)piperidine-4-carboxylic acid] | < 500 | < 500 |
| O=C(O)C1CCN(c2nc(CCCC(F)F)cnc2-c2ccc3c(c2)CCO3)CC1 [Compound 143, 1-(6-(4,4-difluorobutyl)-3-(2,3-dihydrobenzofuran-5-yl)pyrazin-2-yl)piperidine-4-carboxylic acid] | < 500 | – |
| COCCOc1ccc(-c2ncc(CCCC(F)F)nc2N2CCC(C(=O)O)CC2)cc1 [Compound 145, 1-(6-(4,4-difluorobutyl)-3-(4-(2-methoxyethoxy)phenyl)pyrazin-2-yl)piperidine-4-carboxylic acid] | < 500 | – |
| O=c1[nH]c(C2CCN(c3nc(CCC(F)(F)F)cnc3-c3cc(F)c4occc4c3)CC2)no1 [Compound 146, 3-(1-(3-(7-fluorobenzofuran-5-yl)-6-(3,3,3-trifluoropropyl)pyrazin-2-yl)piperidin-4-yl)-1,2,4-oxadiazol-5(4H)-one] | < 500 | – |
| CCCCCc1cnc(-c2cc(F)c3occc3c2)c(N2CCC(C(=O)O)CC2)n1 [Compound 147, 1-(3-(7-fluorobenzofuran-5-yl)-6-pentylpyrazin-2-yl)piperidine-4-carboxylic acid] | < 500 | – |
| CCC(F)(F)Cc1cnc(-c2ccc(OCCOC)cc2)c(N2CCC(C(=O)O)CC2)n1 [Compound 148, 1-(6-(2,2-difluorobutyl)-3-(4-(2-methoxyethoxy)phenyl)pyrazin-2-yl)piperidine-4-carboxylic acid] | > 2000 | – |
| CCC(F)(F)Cc1cnc(-c2ccc3occc3c2)c(N2CCC(C(=O)O)CC2)n1 [Compound 149, 1-(3-(benzofuran-5-yl)-6-(2,2-difluorobutyl)pyrazin-2-yl)piperidine-4-carboxylic acid] | < 500 | – |
| CCC(F)(F)Cc1cnc(-c2ccc(OCC3CC3)cc2)c(N2CCC(C(=O)O)CC2)n1 [Compound 150, 1-(3-(4-(cyclopropylmethoxy)phenyl)-6-(2,2-difluorobutyl)pyrazin-2-yl)piperidine-4-carboxylic acid] | 500 to 2000 | > 2000 |
| O=C(O)C1CCN(c2nc(CCCCC(F)(F)F)cnc2-c2ccc(OCC3CC3)cc2)CC1 [Compound 153, 1-(3-(4-(cyclopropylmethoxy)phenyl)-6-(5,5,5-trifluoropentyl)pyrazin-2-yl)piperidine-4-carboxylic acid] | < 500 | – |
| COCCOc1ccc(-c2ncc(CC(COC)COC)nc2N2CCC(C(=O)O)CC2)cc1 [Compound 155, 1-(6-(3-methoxy-2-(methoxymethyl)propyl)-3-(4-(2-methoxyethoxy)phenyl)pyrazin-2-yl)piperidine-4-carboxylic acid] | > 2000 | – |
| O=C(O)C1CCN(c2nc(CCCC(F)(F)F)cnc2-c2ccc(OC(F)(F)F)cc2)CC1 [Compound 157, 1-(6-(4,4,4-trifluorobutyl)-3-(4-(trifluoromethoxy)phenyl)pyrazin-2-yl)piperidine-4-carboxylic acid] | < 500 | – |
| O=C(O)C1CCN(c2nc(CCCC(F)(F)F)cnc2-c2ccc(OC(F)F)cc2)CC1 [Compound 159, 1-(3-(4-(difluoromethoxy)phenyl)-6-(4,4,4-trifluorobutyl)pyrazin-2-yl)piperidine-4-carboxylic acid] | 500 to 2000 | – |
